PubChem BioAssay (NCI)
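Step 1: Grow cells in 96-well plates. Step 2: Expose to compound for 48 hours at 5 concentrations. Step 3: Interpolate endpoints linearly; if unreached, use highest concentration. TGI marks complete inhibition of growth.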

Assays:
Assay in all cases: NCI tumour cell line growth inhibition, 48 h
[1] = test system: U251 CNS
[2] = test system: HL-60(TB) leukemia
[3] = test system: DU-145 prostate
[4] = test system: NCI/ADR-RES ovarian
[5] = test system: MDA-N
[6] = test system: MALME-3M melanoma
[7] = test system: SF-295 CNS
[8] = test system: HCT-15 colon
[9] = test system: SK-MEL-5 melanoma
[10] = test system: K-562 leukemia
[11] = test system: NCI-H226 lung
[12] = test system: PC-3 prostate
[13] = test system: COLO 205 colon
[14] = test system: HT29 colon
[15] = test system: T-47D breast
[16] = test system: SF-268 CNS
[17] = test system: SR leukemia
[18] = test system: M14 melanoma
[19] = test system: SK-MEL-28 melanoma

SMILES: c1ccc(C2OCC(OC3CCCCO3)CO2)cc1 (stereo not drawn)
- TGI [1]: > 100 µM
- TGI [2]: > 100 µM
- TGI [3]: > 100 µM
- TGI [4]: > 100 µM
- TGI [5]: > 100 µM
- TGI [6]: > 100 µM
- TGI [7]: > 100 µM
- TGI [8]: > 100 µM
- TGI [9]: > 100 µM
- TGI [10]: > 100 µM
- TGI [11]: > 100 µM
- TGI [12]: > 100 µM
- TGI [13]: > 100 µM
- TGI [14]: > 100 µM
- TGI [15]: > 100 µM
- TGI [16]: > 100 µM
- TGI [17]: > 100 µM
- TGI [18]: > 100 µM
- TGI [19]: > 100 µM

SMILES: O=C(/C=C/c1ccccc1)CSc1nc2ccc(I)cc2c(=O)n1Cc1ccccc1
- TGI [1]: > 100 µM
- TGI [2]: 57.2 µM
- TGI [3]: > 100 µM
- TGI [4]: > 100 µM
- TGI [5]: > 100 µM
- TGI [6]: 51.3 µM
- TGI [7]: > 70.6 µM
- TGI [8]: > 100 µM
- TGI [9]: 99.3 µM
- TGI [10]: > 100 µM
- TGI [11]: > 84.4 µM
- TGI [12]: > 96.4 µM
- TGI [13]: > 67.8 µM
- TGI [14]: > 100 µM
- TGI [15]: > 100 µM
- TGI [16]: 51.9 µM
- TGI [17]: 33.3 µM
- TGI [18]: > 100 µM
- TGI [19]: > 100 µM

SMILES: Cc1cc2nc(-c3c(F)cccc3F)n(Cc3c(F)cccc3F)c2cc1C
- TGI [1]: 24.1 µM
- TGI [2]: 42.7 µM
- TGI [3]: 50.5 µM
- TGI [4]: 44.9 µM
- TGI [5]: 38.4 µM
- TGI [6]: 44 µM
- TGI [7]: 27.9 µM
- TGI [8]: 27.6 µM
- TGI [9]: 26.5 µM
- TGI [10]: 42.8 µM
- TGI [11]: 35.1 µM
- TGI [12]: 40.6 µM
- TGI [13]: 30.7 µM
- TGI [14]: 34 µM
- TGI [15]: 47.2 µM
- TGI [16]: 42.7 µM
- TGI [17]: 30.4 µM
- TGI [18]: 25.2 µM
- TGI [19]: 42.2 µM

SMILES: c1ccc2c(c1)nc1n2C2CCC(C2)N1 (stereo not drawn)
- TGI [1]: > 10 µM
- TGI [2]: > 10 µM
- TGI [3]: > 10 µM
- TGI [4]: > 10 µM
- TGI [5]: > 10 µM
- TGI [6]: > 10 µM
- TGI [7]: > 10 µM
- TGI [8]: > 10 µM
- TGI [9]: > 10 µM
- TGI [10]: > 10 µM
- TGI [11]: > 10 µM
- TGI [12]: > 10 µM
- TGI [13]: > 10 µM
- TGI [14]: > 10 µM
- TGI [15]: > 10 µM
- TGI [16]: > 10 µM
- TGI [17]: > 10 µM
- TGI [18]: > 10 µM
- TGI [19]: > 10 µM

SMILES: C/C(CC1SCCCS1)=C(/C)CC1SCCCS1
- TGI [2]: > 100 µM
- TGI [3]: > 100 µM
- TGI [4]: > 100 µM
- TGI [5]: > 100 µM
- TGI [6]: > 100 µM
- TGI [7]: > 100 µM
- TGI [8]: > 100 µM
- TGI [9]: > 100 µM
- TGI [10]: > 100 µM
- TGI [11]: > 100 µM
- TGI [12]: > 100 µM
- TGI [13]: > 100 µM
- TGI [14]: > 100 µM
- TGI [15]: > 100 µM
- TGI [16]: > 100 µM
- TGI [17]: > 100 µM
- TGI [18]: > 100 µM
- TGI [19]: > 100 µM

SMILES: O=C(/C=C/c1ccc(Cl)cc1)c1cccs1
- TGI [1]: 29.5 µM
- TGI [2]: 29.8 µM
- TGI [3]: > 100 µM
- TGI [4]: 74.4 µM
- TGI [5]: 31.6 µM
- TGI [6]: 36.7 µM
- TGI [7]: 38.5 µM
- TGI [8]: 49.9 µM
- TGI [9]: 32.5 µM
- TGI [10]: > 100 µM
- TGI [11]: 44.5 µM
- TGI [12]: 32.8 µM
- TGI [13]: 37.9 µM
- TGI [14]: > 100 µM
- TGI [15]: 45.1 µM
- TGI [16]: 75.9 µM
- TGI [17]: 50.5 µM
- TGI [18]: 36.3 µM
- TGI [19]: 54.2 µM
